Experimental data reported in article PMC5589637, “New perspectives of cobalt tris(bipyridine) system: anti-cancer effect and its collateral sensitivity towards multidrug-resistant (MDR) cancers” (Oncotarget, 2017).
pIC50: −log10 of the molar value.

How the values were obtained:
HeLa cancer cells = experiment: Endogenous autophagy detection (LC3-II puncta immunofluorescence); type: cell-based; conditions: 24 h
Description: The detection of endogenous LC3 was conducted using immunofluorescence staining method as described below. In brief, cobalt complex 2-treated HeLa cancer cells on cover slips were fixed with 4% paraformaldehyde (Sigma) for 20 min at room temperature and then rinsed with PBS. Coverslips were immersed in methanol at room temperature for 2 min. After washing with PBS, the cells were then incubated with anti-LC3 (1:200) in TBST (100 mM Tris HCl, pH 7.5, 150 mM NaCl, 0.05% Tween 20 and 5% BSA) overnight at 4 °C. After washing with PBS, the cells were incubated with anti-mouse secondary antibody (TRITC) (1:200) in TBST containing 5% BSA at 37°C for 1 hour in the dark. The coverslips were then mounted with FluorSave™ mounting media (Calbiochem, San Diego, CA, USA) for fluorescence imaging and localization of LC3 autophagosomes were captured under the API Delta Vision Live-cell Imaging System (Applied Precision Inc.,GE Healthcare Company, Washington, USA). To quantify autophagy, guidelines were followed. The percentage of cells with autophagic induction was calculated by the number of the cells with increased formation of punctate LC3 fluorescence dots (≥ 10 dots/cell) over the total number of immunofluorescence-positive cells in the same field. A minimum of 1000 cells from randomly selected fields were scored.

P-gp = P-gp (Homo sapiens, UniProt P08183); conditions: taxol-resistant MCF-7, HCT-8 and A549, 0.5-10 μM, 4 h, dose-dependent
Description: Taxol-resistant cancer cells were seeded in 6 well plate with 2 × 10^5 cells each well and cultured for 24 h at 37°C in an atmosphere containing 5% CO2. […] Subsequently, 5 μg/mL of Rho123 was added to each well and the wells were incubated for another 1 h at 37°C. The accumulation of Rho123 was stopped by washing the cells five times with ice-cold PBS. The cells were then resuspended in 400 μL PBS for flow cytometry analysis. Intracellular fluorescence was measured using a flow cytometer at an excitation wavelength of 488 nm and emission wavelength of 525 nm. All data acquisition and analysis were performed with CellQuest (BD Biosciences, San Jose, CA, USA) with at least three independent experiments. Results were shown as the mean of fluorescence intensity.

[1] = Pharmacokinetic study (HPLC-MS of blood samples); type: in vivo; conditions: male C57BL/6 mice
Description: Pharmacokinetic study of cobalt complex 2 was performed in male C57BL/6 mice by the dosage of 40 mg/kg. The source of mouse and practice of husbandry were the same as described in the methodology section of LLC-1 Xenograft Tumor experiment. Cobalt complex 2 was diluted in the formula (PEG400: H2O: Ethanol = 6:3:1) and administered by intraperitoneal in a volume of 0.005 mL/g bodyweight. After dosing, blood samples were collected to sodium heparin anticoagulant tube at different time points (5, 15, 30 min, and then 1, 2, 4, 8, 12 and 24 hours); 4 mice were used for each time point. Approximately 200 μL of blood was collected via orbital vein from each anesthetized mouse by isoflurane. Plasma was separated by centrifugation at 3000 g for 10 minutes at 4°C. The plasma was protected and stored at −80°C until analyzed by liquid chromatography-mass spectrometry/mass spectrometry (LC-MS/MS) for quantification.
Plasma samples were thawed at room temperature and then vortexed to ensure sample solution homogeneity. Firstly, a 20 μL aliquot of each plasma sample were loaded into 1.5 mL tube, 100 μL acetonitrile was added, vortexed then centrifuged at 13000 rpm for 10 min. the supernatant was collected. The plasma cobalt complex 2 concentrations were quantified using Thermo HPLC Ultimate 3000 system. The compound in plasma samples were analyzed by using the Agilent Zorbax Eclipse Plus C-18 column with a particle size of 1.8 μm. The parameters of the gradient elution program were applied as follows: mobile phase A (0.1% formic acid in water) and mobile phase B acetonitrile: 0–5.5 min, 20% B; 5.5–7 min, 90% B; 7–10 min, 20% B. The column and autosampler temperature were maintained at 40 and 4 °C, respectively. The gas temperature was set 320 °C with flow rate (0.8 mL/min), gases were set at 10 psi for the nebulizer, capillary, 3500 V.

[2] = system: HCT-8 taxol-sensitive cancer cells; experiment: MTT cytotoxicity, taxol-sensitive HCT-8; type: cell-based; conditions: 72 h
Text: All cells were obtained from the American Type Culture Collection (Rockville, MD, USA) unless otherwise specified. Immortalized wild-type and Atg7-deficient mouse embryonic fibroblasts (MEFs) were kindly provided by Professor Masaaki Komatsu (Juntendo University, School of Medicine, Japan). Taxol-resistant types of MCF-7, HCT-8, A549 cancers cells and cisplatin-resistant SGC7901 cancer cells were purchased from KeyGEN BioTECH, China. Cisplatin-sensitive or –resistant A2780, OV2008 and C13 cancer cells were kindly provided by Prof. Benjamin Tsang (Department of Obstetrics and Gynecology and Department of Cellular and Molecular Medicine, University of Ottawa, Canada). HCT116 p53^+/+ and p53^−/− isogenic human colon cancer cells were kindly provided by Professor Bert Vogelstein (Ludwig Center at Johns Hopkins, Howard Hughes Medical Institute, USA). All media were supplemented with 10% fetal bovine serum and antibiotics penicillin (50 U/ml) and streptomycin (50 μg/ml; Invitrogen, Paisley, Scotland, UK). All cell cultures were incubated at 37°C in a 5% humidified CO2 incubator.
All tested compounds were dissolved in DMSO at a final concentration of 50 mmol/L and stored at −20°C before use. Cytotoxicity was assessed by using the 3-(4,5-dimethylthiazol-2-yl)-2, 5-diphenyltetrazolium bromide (MTT) (5.0 mg/ml) assay as previously described. Briefly, 4×10^3 cells per well were seeded in 96-well plates before drug treatments. After overnight culture, the cells were then exposed to different concentrations of selected compounds ([…]) for 72 hours. Cells without drug treatment were used as control. Subsequently, MTT (10 μL) solution was added to each well and incubated at 37°C for 4 hours followed by the addition of 100 μL solubilization buffer (10%SDS in 0.01 mol/L HCl) and overnight incubation. A570 nm was then determined in each well on the next day. The percentage of cell viability was calculated using the following formula: Cell viability (%) = Atreated/Acontrol × 100. Data were obtained from three independent experiments.

P-gp, sequence (P08183 whole entry): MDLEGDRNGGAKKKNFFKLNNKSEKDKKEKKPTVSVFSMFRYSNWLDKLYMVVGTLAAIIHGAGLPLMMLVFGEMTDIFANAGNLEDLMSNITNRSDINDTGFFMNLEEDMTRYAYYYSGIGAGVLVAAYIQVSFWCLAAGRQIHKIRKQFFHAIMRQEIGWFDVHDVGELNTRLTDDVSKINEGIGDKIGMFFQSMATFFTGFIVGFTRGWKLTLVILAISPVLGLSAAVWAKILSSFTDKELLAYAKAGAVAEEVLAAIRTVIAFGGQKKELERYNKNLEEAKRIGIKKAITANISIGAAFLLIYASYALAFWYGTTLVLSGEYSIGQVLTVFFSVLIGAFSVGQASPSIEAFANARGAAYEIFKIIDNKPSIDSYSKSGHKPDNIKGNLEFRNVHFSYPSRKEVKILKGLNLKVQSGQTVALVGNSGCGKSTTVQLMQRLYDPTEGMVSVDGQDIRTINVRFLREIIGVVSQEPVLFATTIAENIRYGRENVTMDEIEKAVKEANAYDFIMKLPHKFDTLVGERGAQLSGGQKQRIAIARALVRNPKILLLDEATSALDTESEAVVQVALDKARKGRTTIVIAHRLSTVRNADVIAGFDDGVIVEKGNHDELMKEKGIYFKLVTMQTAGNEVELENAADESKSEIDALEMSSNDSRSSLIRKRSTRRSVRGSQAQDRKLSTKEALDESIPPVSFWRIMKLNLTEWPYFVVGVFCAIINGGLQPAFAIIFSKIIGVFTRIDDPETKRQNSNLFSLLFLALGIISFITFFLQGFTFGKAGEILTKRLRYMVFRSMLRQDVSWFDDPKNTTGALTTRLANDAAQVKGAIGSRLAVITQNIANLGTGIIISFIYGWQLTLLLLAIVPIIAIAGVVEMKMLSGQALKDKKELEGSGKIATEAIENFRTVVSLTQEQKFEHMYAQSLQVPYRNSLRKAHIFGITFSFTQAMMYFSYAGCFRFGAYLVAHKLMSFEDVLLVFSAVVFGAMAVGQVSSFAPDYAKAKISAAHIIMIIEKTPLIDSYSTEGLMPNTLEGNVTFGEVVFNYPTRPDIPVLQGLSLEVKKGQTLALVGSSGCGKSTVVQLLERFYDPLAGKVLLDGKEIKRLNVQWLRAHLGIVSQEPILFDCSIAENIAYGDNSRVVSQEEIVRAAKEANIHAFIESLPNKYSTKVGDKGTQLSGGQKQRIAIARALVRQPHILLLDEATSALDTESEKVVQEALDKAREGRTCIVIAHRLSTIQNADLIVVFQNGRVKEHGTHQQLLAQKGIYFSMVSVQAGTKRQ

## Cc1ccnc(-c2cc(C)ccn2)c1.Cc1ccnc(-c2cc(C)ccn2)c1.Cc1ccnc(-c2cc(C)ccn2)c1.F[P-](F)(F)(F)(F)F.F[P-](F)(F)(F)(F)F.F[P-](F)(F)(F)(F)F.[Co+3] [complex 2, [Co^III(4,4’-Me2-bpy)3](PF6)3]
HeLa cancer cells
  autophagy induction (percentage of cells with endogenous LC3-II puncta formation): induce autophagy in dose-dependent manner
P-gp
  effect on P-gp activity (Rho123 accumulation): induced inhibitory effects towards P-gp activity in all the treated cell lines
[1]; 40 mg/kg intraperitoneal of complex 2, 5 min to 24 hours
  species detected in blood samples by HPLC-MS: neither cobalt complex 2 nor its decomposed species was observed
[1]; 40 mg/kg intraperitoneal, after 2-hour time interval
  metabolism after absorption: almost complete metabolism
[2]
  pIC50: 5.47
